Reference: paper PMC6321145 (Molecules, 2018)

Tests used:
[1] = Metal chelation by UV-vis spectrometry; assay type: physicochemical
Procedure: The chelation ability of compound 6b1 toward biometals such as Na^+, K^+, Cu^2+, Fe^2+, Mg^2+, Ca^2+, and Zn^2+ was studied by UV-vis spectrometry. […] Its ability to selectively chelate Cu^2+ versus other relevant metal ions was further investigated by UV-vis spectrometry. Solution of compound 6b1 was prepared and treated with the metal ion (Zn^2+, Fe^2+, Ca^2+, Mg^2+, Na^+ and K^+), after 10 min incubation, the optical response was observed, followed by addition of Cu^2+ and consequent analysis of further spectral changes.
In order to further determine the stoichiometry of compound 6b1 for Cu^2+ binding, the UV spectra was performed by titrations of compound 6b1 upon stepwise additions of a Cu^2+ solution.
The metal chelation of compound 6b1 was tested in ethanol using a UV-vis spectrophotometer (Shimadzu UV-2450PC) with wavelength ranging from 200 to 700 nm. The absorption spectra of compound 6b1 (10 μM, final concentration) alone or in the presence of metal ions (20 μM, final concentration) after incubation for 30 min at room temperature, was recorded at room temperature in a 1 cm quartz cell. Each sample was repeated for at least three times.
Experiments for the determination of metal ion binding selectivity were carried as follows. 20.0 mM stock solutions of CuSO4, ZnSO4, FeSO4, CaCl2, MgCl2, NaCl and KCl in MQ water were prepared and then diluted to 1.0 mM using ethanol. […] 10 μL solutions of the compounds treated with 10 μL of ZnSO4, FeSO4, CaCl2, MgCl2, NaCl and KCl. Spectra were recorded after 10 min incubation at 25 °C. The metal binding selectivity was assessed by then adding 10 μL of CuSO4 solution and incubating for 10 additional min at 25 °C. Selectivity was quantified by comparing and normalizing the absorbance values of the maximum in each case with the absorbance of the solution at the same wavelength after addition of CuSO4.
For binding stoichiometry assay, A fixed amount of compound 6b1 (20 μM) was mixed with growing amounts of copper ion (0–20 μM) and tested the difference UV-vis spectra to investigate the ratio of ligand/metal in the complex.

[2] = tested on: SH-SY5Y cells; assay: Cellular ROS detection (DCFH-DA) in SH-SY5Y cells treated with t-BuOOH; assay type: cell-based, human; settings: compound 2.5 μM; 0.1 mM t-BuOOH; compared with Trolox
Procedure: To further investigate their antioxidant activity in SH-SY5Y cells, cellular ROS detection assay based on dichlorofluorescein diacetate (DCFH-DA) was performed. with Trolox and N-acetyl-L-cysteine (NAC) as reference compounds.
SH-SY5Y cells were maintained in Dulbecco’s modified Eagle’s medium (DEME) and supplemented with 1 mM glutamine, 10% fetal calf serum, 100 U/mL penicillin, and 100 μg/mL streptomycin. The cultures were maintained at 37 °C in a humidified incubator containing 5% CO2 and were passaged twice weekly.
The antioxidant activity of the compounds in SH-SY5Y cells were tested with the fluorescent probe (2′,7′-dichlorofluorescein diacetate, DCFH-DA) as reported with some variation. SH-SY5Y cells were sub-cultured in 96-well plates at a seeding density of 1 × 10^4 cells per well for 24 h, then the medium was removed, the tested compounds (2.5 μM) was added and incubated for another 24 h at 37 °C. After that, the cells were washed with PBS and incubated with 5 μM DCFH-DA in PBS at 37 °C in 5% CO2 for 30 min. Then DCFH-DA was removed, the cells were washed three times and incubated with 0.1 mM t-BuOOH in PBS for 30 min. After the incubation, the cell fluorescence from each well was measured at 485 nm excitation and 535 nm emission with a monochromator based multimode microplate reader ([…] M1000).

[3] = tested on: mice; assay: Step-down passive avoidance test, scopolamine-induced memory impairment; assay type: in vivo
Procedure: A step-down passive avoidance test was used to assess learning and memory in mice. The apparatus (Shanghai XinRuan, Shanghai, China) consisted of two identically sized compartments, with a guillotine door to separate light and dark. Illumination was available in the light box through LED lights at 250 lux. The mice underwent two separate trials: a training trial and a test trial 24 h later. For training trial, mice were initially placed in the light compartment and were allowed to explore the environment freely for 5 min so that they can be familiar with the environment. Then the door was opened, the mice tried to enter the dark compartment since they preferred to stay in dark place. As soon as the mice came into the dark compartment, an electrical shock was delivered through the steel rods. The training lasted for 5 min. […] The test trial was preformed after 24 h. The mice were placed into the light compartment and the door was opened. The time that the mouse spent to enter the dark compartment was recorded as the latency. The numbers that the mouse entered the dark compartment during 5 min were measured as error numbers.

[4] = Oxygen radical absorbance capacity with fluorescein (ORAC-FL) assay; settings: compound 1 μM
Procedure: Oxidative stress is another crucial event in AD pathogenesis. In order to determine antioxidant activities of our synthetic compounds, the oxygen radical absorbance capacity method with fluorescein (ORAC-FL) assay was performed. with Trolox (6-hydroxy-2,5,7,8-tetramethylchroman-2-carboxylic acid) as the standard, and their antioxidant activity was expressed as Trolox equivalents.
The antioxidant activities of the compounds in vitro were determined by the oxygen radical absorbance capacity fluorescein (ORAC-FL) assay. The tested compounds and (±)-6-hydroxy-2,5,7,8-tetramethylchroman-2-carboxylic acid (Trolox) were dissolved in DMSO at a concentration of 10 mM, and then diluted with 75 mM potassium phosphate buffer (pH 7.4) to 50 μM and 10 μM for use. The fluorescein (FL) stock solution (3.4 mM) was diluted with the same buffer to 136 nM. All the assays were conducted with 75 mM potassium phosphate bufffer (pH 7.4), and the final reaction mixture was 200 μL.
The mixture of compounds (or buffer) (20 μL) and fluorescein (FL, 120 μL) were incubated for 15 min at 37 °C in a black 96-well plate. Then 2,2′-azobis-(amidino-propane)-dihydrochloride (AAPH) solution (60 μL, 40 mM) was rapidly added to the reaction mixture. The fluorescence was recorded every 5 min for 240 min at 485 nm (excitation wavelength) and 535 nm (emission wavelength) (Varioskan Flash Multimode Reader, Thermo Scientific, Waltham, MA, USA), and each sample was prepared and measured for three times independently. […] The net AUC for a sample was calculated using the expression net AUC = AUCsample − AUCblank, The ORAC-FL value of each sample was calculated using the equation of net AUCsample/(AUCTrolox – AUCblank), which was expressed as Trolox equivalents.

[5] = compound 10 μM, metal ions 20 μM, ethanol

Compound: CCN(CC)c1ccc(/C=C/c2cc(NCCCN(C)C)c3ccccc3n2)cc1 [Compound 6b1, (E)-N^1-(2-(4-(Diethylamino)styryl)quinolin-4-yl)-N^3,N^3-dimethylpropane-1,3-diamine]
- Binding to Na^+, K^+, Mg^2+, Ca^2+ (UV-vis) [1, 5]: may not bind to these metal ions
- Interaction with Cu^2+, Fe^2+, Zn^2+ (UV-vis) [1, 5]: form the complex
- Selectivity of metal chelation for Cu^2+ versus other metal ions ([1]; versus Zn^2+, Fe^2+, Ca^2+, Mg^2+, Na^+, K^+): good selectivity of metal chelation for Cu^2+
- Antioxidant activity in SH-SY5Y cells (ROS generation, DCFH-DA fluorescence) [2]: more antioxidant activity than Trolox
- Improvement of memory impairment compared with model group ([3]; 4.0 mg/kg (low dose)): didn’t exhibit significant improvement
- Latency time ([3]; 16.0 mg/kg (high dose)): 182 s
- Number of errors ([3]; 16.0 mg/kg (high dose)): 2.72
- ORAC [4]: 6.23 ± 0.05 μmol of Trolox equivalents/μmol of tested compounds
